The source of these data is the supplement of paper PMC3974653.

In the assay the test system is MTT (mouse pheochromocytoma). Nature of the assay: IC50 of cell viability (ATP content). The conditions noted are these: (24 or 48 h). In a few lines: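 After overnight culture at 37°C, 5% CO2 in white 1536-well plates, MTT mouse pheochromocytoma cells were given 23 nl of library compound in DMSO by pintool across 8 concentrations, spanning final 0.5 nM to 46 µM. Following 24 or 48 hrs, CellTiter-Glo luminescence was read after 15 minutes and normalised against positive-control (100%) and DMSO (0%) wells. A four-parameter logistic model provided the IC50.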

Structures can show the parent of a compound that is named as a salt.

Consider `CC(=O)N(CC(O)CN(C(C)=O)c1c(I)c(C(=O)NC[C@@H](O)CO)c(I)c(C(=O)NC[C@@H](O)CO)c1I)c1c(I)c(C(=O)NC[C@@H](O)CO)c(I)c(C(=O)NC[C@@H](O)CO)c1I` [Iodixanol], for which the “IC50 of cell viability” value is more than 46 µM.

In the case of `CC1(C)C(\C=C(/Cl)Cl)C1C(=O)OC(C#N)C2=CC=CC(OC3=CC=CC=C3)=C2` (stereo not drawn) [Cypermethrin], the “IC50 of cell viability” value was more than 46 µM. Then `C[C@H](CCCC(C)(C)O)[C@H]1CC[C@H]2[C@@H]3CC=C4C[C@@H](O)CC[C@]4(C)[C@H]3CC[C@]12C` [25-Hydroxycholesterol], with more than 46 µM. As to `CCCCC(=O)O[C@]1(C(=O)CO)[C@H](C)C[C@H]2[C@@H]3CCC4=CC(=O)C=C[C@]4(C)[C@@]3(F)[C@@H](O)C[C@@]21C` [DEXAMETHASONE VALERATE], the “IC50 of cell viability” value is more than 46 µM. Then `COc1ccc(OC)c(C(O)C(C)N)c1.Cl` (stereo not drawn) [METHOXAMINE HYDROCHLORIDE], with more than 46 µM.

For the compound `O=C1/C=C(OC2=CC=CC=C12)/C3=CC=CC=C3` [Flavone], the “IC50 of cell viability” value was more than 46 µM.

For the compound `COc1cc(C(=O)NC2CCCNC2)cc(OC)c1OC` (stereo not drawn) [TROXIPIDE], the “IC50 of cell viability” value is more than 46 µM. On to `CC(C)C(=O)OCC(=O)[C@@]12OC(C3CCCCC3)O[C@@H]1CC1C3CCC4=CC(=O)C=C[C@]4(C)C3[C@@H](O)C[C@@]12C` (stereo partly drawn) [CICLESONIDE], for which the “IC50 of cell viability” value was more than 46 µM.

`CC(NC(CCc1ccccc1)C(=O)O)C(=O)N1CCCC1C(=O)O` (stereo not drawn) [Enalapril acid]: the “IC50 of cell viability” value was more than 46 µM.

As to `CSc1ccc2c(c1)N(CCC1CCCCN1C)c1ccccc1S2` (stereo not drawn) [THIORIDAZINE], the “IC50 of cell viability” value is more than 46 µM.

Consider `Cc1ccc(O)c(-n2nc3ccccc3n2)c1` [Drometrizole], for which the “IC50 of cell viability” value is more than 46 µM. In the case of `OCCOc1ccccc1` [Ethylene glycol monophenyl ether] it was more than 46 µM; in that of `Nc1ccc(Cl)cc1N` [4-Chloro-o-phenylenediamine], more than 46 µM. In the case of `NCCN` [Ethylenediamine], the “IC50 of cell viability” value was more than 46 µM. Regarding `CN1CCN(C2=Nc3ccccc3Cc3ccccc32)CC1` [Perlapine], the “IC50 of cell viability” value was more than 46 µM. As to `C[C@]12C=CC(=O)C=C1CC[C@@H]1C2CC[C@]2(C)OC(=O)CCC12` (stereo partly drawn) [Testolactone], the “IC50 of cell viability” value is more than 46 µM. As to `O=NCc1ccc([N+](=O)[O-])o1` [NIFUROXIME], the “IC50 of cell viability” value is more than 46 µM. Then `COc1cc2[nH]c(C)c(CCN3CCN(c4ccccc4)CC3)c2cc1OC` [Equipertine hydrochloride], with more than 46 µM; and `CCCCCCCCCC(CC)c1ccc([S+](=O)([O-])O)cc1` (stereo not drawn) [4-Dodecylbenzenesulfonic acid], with more than 46 µM; and `CCN1CCC[C@@H]1CNC(=O)c1cc([S+](=O)([O-])CC)ccc1OC` [Sultopride Hydrochloride], with more than 46 µM. Then `CCOC(=O)c1cccnc1` [ETHYL NICOTINATE], with more than 46 µM; and `Nc1ccccc1C(=O)O` [o-Anthranilic acid], with more than 46 µM; and `OCC1O[C@H](Oc2ccc(O)cc2)C(O)C(O)C1O` (stereo partly drawn) [ARBUTIN], with more than 46 µM. In the case of `c1ccc(CNCCNCc2ccccc2)cc1` [N,N'-DIBENZYLETHYLENEDIAMMONIUM DI(ACETATE)] it was more than 46 µM; in that of `O=C(O)/C=C/c1ccccc1` [CINNAMIC ACID], more than 46 µM. Consider `CCN1CCCC1CNC(=O)c1cc([S+](=O)([O-])CC)ccc1OC` (stereo not drawn) [Sultopride Hydrochloride], for which the “IC50 of cell viability” value is more than 46 µM. Then `COc1cc(C=O)ccc1O` [Vanillin], with more than 46 µM. In the case of `COc1ncnc(N[S+](=O)([O-])c2ccc(N)cc2)c1OC` [Sulfadoxine] it was more than 46 µM.
